Patent publication US8772227B2, “Glucosamine pro-drug” (priority 2011, dated 2014)

Legend:
[1] = Chemical stability (60° C. oven for 48 h); format: physicochemical; details: 60° C. for 48 h; <96% considered unstable
Description: Compounds were transferred into transparent glass vials and placed in 60° C. oven for 48 h. Compound with <96% stability are considered unstable.

[2] = Absorption through everted rat gut; format: in vitro ADME
Description: (§1) Pro-drugs were incubated for 2 h with homogenized rat stomach or intestine while the pH is kept at 1.0 or 7.4, respectively. Samples are taken at 30 min interval for the analysis of the pro-drug and GlcN. This procedure was used as a prerequisite to further tests described in Examples 6, 7 and 8. A compound with low stability under this condition was decided to be unsuitable for further test. […] Everted rat gut sacks are immersed in 80 μg/mL (GlcN equivalent) of GlucN HCl or GV-GluN HCl solution. The appearance of glucosamine each compound inside the sack (serosal) was measured. […] Gly-Val-COO-GlcN is GV-GlycN.
A mid line incision was made in the anesthetised rat abdomen, the intestine was exposed and five 10 cm segments of the jejunum are cut. In ice cold Krebs Henseleit buffer, the intestinal content are removed and each segment are everted over a glass rod, tied from one side, a polyethylene tube is inserted into the other side and tied. The segments are filled with buffer and incubated in a perfusion apparatus containing oxygenated Krebs Henseleit buffer at 37° C. The test compound was added to the mucosal (outer surface of the everted gut) and serial samples were collected from both sides. The percent of the movement from outside (mucosal) to inside (serosal) was measured and compared (FIG. 4). […]

[3] = tested on: adjuvant arthritis caused by Mycobacterium butyricum; experiment: Efficacy against adjuvant arthritis; format: in vivo; details: for preventing effect on emergence of adjuvant arthritis: daily doses from day 0, GlcN HCl 90 mg, GV-GlcN 30 mg glucosamine equivalent, FIG. 6; for paw thickness after treatment of established adjuvant arthritis: four days of daily doses from day 14, GlcN 90 mg/kg, GV-GlcN 30 mg/kg GlcN equivalent, FIG. 7
Description: Under anesthesia, rats were injected with 0.2 ml of 50 mg/ml Mycobacterium butyricum suspended in squalene in the base of the tail (day 0). Their paw thickness was measure daily. Within 12-14 days significant increases in paw thickness were noticed, indicative of the emergence if adjuvant arthritis. Repeated daily doses of drugs were administered either right after the time of Mycobacterium injection (to prevent emergence of arthritis) or after the appearance of arthritis (to treat arthritis). Animals were monitored for their arthritis status during the entire length of the experiment.
On day zero, Mycobacterium butyricum is injected to all rats along with daily doses of glucosamine, GV-GlnN or placebo. The placebo group develops severe AA but not the ones that received either treatment. Upon discontinuation of the treatments, AA emerges (FIG. 6).

[4] = Bioavailability in the rat (plasma GlcN AUC after oral dose); format: in vivo
Description: Prodrugs or GlcN HCl or sulphate were administered to rats in single oral doses equivalent to a fix amount of GlcN. Plasma GlcN concentrations were measured using HPLC in serial sample collected over a period of time. The areas under plasma-concentration-time curves (AUC or relative bioavailability) were calculated and compared (FIGS. 5 and 5a).

[5] = Stability in the gut (incubation with homogenized rat stomach or intestine); format: in vitro ADME; details: incubated with homogenized rat stomach (pH 1.0) or intestine (pH 7.4); read-out: t1/2 of decomposition in the presence of rat gut
Description: as §1

[6] = oral administration, reference (23); cited from earlier work

SMILES | physicochemical stability (percent stable) [1] [%] | stability after exposure to the gut (no conversion into glucosamine) ([2]; 60 minutes exposure, FIG. 4) | transport across everted rat gut ([2]; mucosal to serosal) [%] | preventing effect on emergence of adjuvant arthritis [3] | paw thickness after treatment of established adjuvant arthritis [3] | paw thickness after treatment of established adjuvant arthritis ([3]; listed as GV-GluN) | area under the plasma glucosamine concentration-time curve compared with GlcN ([4]; 110 mg/kg (GlcN equivalent), FIG. 5A, n=3-5/group) | mean AUC (bioavailability) of GlcN in rat plasma compared with GlcN HCl ([4]; oral, 110 mg GlcN equivalent, FIG. 5, AUC(0-4)) | half-life [5] [min] | AUC of GlcN after oral HCl versus sulphate salt [6] | paw thickness after treatment of established adjuvant arthritis ([3]; listed as GlcN HCl)
CC(C)C(NC(=O)CN)C(=O)OCC1OC(O)C(N)C(O)C1O (stereo not shown) [GV-GlcN, (5-amino-3,4,6-trihydroxyoxan-2-yl)methyl 2-(2-aminoacetamido)-3-methylbutanoate] | > 96 | greater than 96% | ~80 | prevent the disease | significantly reduce the paw thickness | Significant (p>0.05) reduced paw thickness | significantly greater than GlcN | significantly and substantially greater | > 960 |  | 
N[C@H]1C(O)O[C@H](CO)[C@@H](O)[C@@H]1O.N[C@H]1C(O)O[C@H](CO)[C@@H](O)[C@@H]1O.O=S(=O)(O)O (stereo partly shown) [GlcN sulfate] |  |  |  |  |  |  |  |  |  | equal AUC values | 
N[C@H]1C(O)O[C@H](CO)[C@@H](O)[C@@H]1O (stereo partly shown) [GlcN, Glucosamine] |  |  |  | prevent the disease | significantly reduce the paw thickness |  |  |  |  |  | Significant (p>0.05) reduced paw thickness
